Source: patent US8992891B2, “Therapeutic approaches for treating CMT and related disorders” (Pharnext, priority 2007, dated 2015)

How the values were obtained:
PMP22 mRNA = PMP22 mRNA level by quantitative RT-PCR after drug stimulation of rat Schwann cell primary culture; type: cell-based; design: key: +: significantly decreases PMP22 levels compared to control; conditions: rat primary Schwann cells, drug incubation 24 hrs
Method: After cells being platted in 12 well-dishes, the medium is replaced by a defined medium consisting in a mix of DMEM-F12 (Invitrogen #21331020) complemented by 1% of N2 supplement (Invitrogen #17502), 1% L-Glutamine (Invitrogen #25030024) 2.5% FBS (Sciencell #0025), 0.02 μg/ml of corticosterone (Sigma #C2505), 4 μM Forskolin and 50 μg/ml of gentamycin. Growth factors are not added to this medium, to promote SC differentiation
24 hours later, the medium is replaced by a defined medium (DMEM-F12) complemented with 1% Insulin-Transferrin-Selenium-X (ITS, Invitrogen #51300), 16 μg/ml of Putrescine (Sigma #P5780), 0.02 μg/ml of corticosterone and 50 μg/ml of gentamicin. At this step, neither progesterone nor forskolin are present in the medium.
One day later, Schwann cells are stimulated by combinations of drugs or drugs alone during 24 hrs (3 wells/condition). The preparation of each compound is performed just prior to its addition to the cell culture medium.
Drugs are added to a defined medium composed of DMEM-F12, with 1% Insulin-Transferrin-Selenium-X (ITS, Invitrogen #51300), 16 μg/ml of Putrescine, 0.02 μg/ml of corticosterone, 10 nM Progesterone and 50 μg/ml of gentamicin. The absence of Forskolin during drug stimulation avoids adenylate cyclase saturation.
Quantitative RT-PCR is used to compare the levels of PMP22 mRNA after drug stimulation, relative with housekeeping Ribosomal L13A mRNA in rat Schwann cell primary culture.
After rinsing with cold sterilized PBS, total RNAs from each cell sample are extracted and purified from SC using the Qiagen RNeasy micro kit (Qiagen #74004). Nucleic acids are quantified by Nanodrop spectrophotometer using 1 μl of RNA sample. The RNA integrity is determined through a BioAnalyzer (Agilent) apparatus.
RNAs are reverse-transcribed into cDNA according to standard protocol. cDNA templates for PCR amplification are synthesized from 200 ng of total RNA using SuperScript II reverse-transcriptase (Invitrogen #18064-014) for 60 min at 42° C. in the presence of oligo(dT), in a final volume of 20 μl.
cDNAs are subjected to PCR amplification using the ? LightCycler® 480 ? system (Roche Molecular Systems Inc.) Each cDNA are diluted five times before being used for PCR amplification. 2.5 μl of this cDNAs enters the PCR reaction solution (final volume of 10 μl). Preliminary experiments ensured that quantitation was done in the exponential phase of the amplification process for both sequences and that expression of the reference gene was uniform in the different culture conditions.
PCR reaction is performed by amplification of 500 nM of forward primer of rat PMP22 (NM_017037), 5-GGAAACGCGAATGAGGC-3 (SEQ ID NO: 1), and 500 nM of reverse primer 5-GTTCTGTTTGGTTTGGCTT-3 (SEQ ID NO: 2) (amplification of 148-bp). A 152-bp fragment of the RPL13A ribosomal (NM_173340) RNA is amplified in parallel in separate reactions for normalization of the results by using 500 nM of forward primer 5-CTGCCCTCAAGGTTGTG-3 (SEQ ID NO: 3), and 500 nM of reverse primer 5-[…]-3 (SEQ ID NO: 4).
We used FRET chemistry to perform RT-Q-PCR analysis. FRET probes are composed of 0.3 μM of Pmp22-FL-5-[…] (SEQ ID NO: 5) or Rpl13A-FL-5-TCGGGTGGAAGTACCAGCC (SEQ ID NO: 6), labelled at their 3′ end with a donor fluorophore dye (Fluorescein). 0.15 μM Red640 probes are defined as follows: Pmp22-red-5′-[…]- (SEQ ID NO: 7) or Rpl13A-red-5′-[…] (SEQ ID NO: 8), labelled at their 5′ end with an acceptor fluorophore dye (Rhodamine Red 640).
Each PCR reaction contained 2.5 μl cDNA template in a final volume of 10 μl of master mix kit (Roche #04-887301001).
The following PCR conditions are used: 10 sec at 95° C., 10 sec at 63° C. and 12 sec at 72° C. and 30 sec at 40° C. (Forty amplification cycles). The relative levels of PMP22 gene expression is measured by determining the ratio between the products generated from the target gene PMP22 and the endogenous internal standard RPL13A. […]

[1] = system: hemizygous PMP22 transgenic rat (CMT rat); experiment: Morphometrical analysis of hindlimb tissues and body weight in CMT rats; conditions: CMT female rats, end of study, versus control WT rats

Structure (SMILES)	mRNA (PMP22 expression decrease) (PMP22 mRNA)	deficiencies of sciatic nerve and soleus muscle masses [1]
Cn1cc[nH]c1=S [Methimazole]	+	completely corrected
CC[C@@H]1C(=O)OC[C@@H]1Cc1cncn1C [Pilocarpine]	+	–
